Results as given in patent US20230094922A1, “METHODS OF THERAPEUTIC PROGNOSTICATION” (GENETIKAPLUS LTD., priority 2020, published 2023).

System: iPSC-derived cortical neurons
Experiment: Pre- and post-synaptic marker (Synapsin, PSD95) puncta and colocalization imaging analysis
Format: cell-based, human
Settings: for intact synapses (colocalization of pre- and post-synaptic terminals), treated vs untreated: 7 days after treatment (Bupropion also 3 days)
Description: iPSC differentiation into neurons-iPSCs were seeded at a density of 3×10^6 cells/well on a hESC-qualified Matrigel pre-coated 6-well plate and incubated at 37° C., 5% CO2 overnight. Differentiation was initiated the following day (day 0) after verifying that 100% confluency was reached. Differentiation media was added daily according to the following order: […]7 (day 15 onward) similar to a previously published protocol developed by for rapid differentiation to cortical neurons. The components of the described media, Q1-7, are provided in Appendix 1. Cells were assessed for differentiation efficiency and cell death on a daily basis. On day 9, differentiated neurons were re-plated on either 96-well plates (destined for staining) or 12-well plates (destined for RNA extraction) that were coated with 15 μg/mL Poly-ornithine diluted in PBS (overnight incubation at 37° C.), followed by 1 μg/mL Laminin and 2 μg/mL Fibronectin diluted in PBS (overnight incubation at 37° C.): Neurons were first rinsed with pre-warmed PBS and 1 ml/well of Accutase was added for 35 minutes at 37° C., 5% CO2. DNAse1 (0.5 mg/mL) was then added for 10 additional minutes. 3 ml of pre-warmed Neurobasal media was added to each well and neurons were gently collected using a 5 ml […]. Wells were then verified for the presence of any remaining neurons. Neurons were spun down and resuspended in Q6 media. Neurons were seeded at a density of 150,000 cells/cm^2 placed back at 37° C. Following four hours of incubation, media was changed to Q6 media (150 μl per 96-well and 1 ml per 12-well). […] For dendritic arborization analysis, pre/post-synaptic markers and colocalization analysis; α-Syn, PSD95 and MAP2 primary antibodies were used. Following washes, fluorophore-coupled secondary antibodies were incubated in the blocking solution for 1 hour at room temperature. The cells were counter-stained with 4',6-diamidino-2-phenylindole (DAPI) for nuclei detection for 15 minutes at room temperature followed by washes with PBS. Imaging was performed using Nikon Spinning Disk Confocal microscope. For imaging of pre- and post-synaptic markers, images were acquired with a 100× objective in z-stacks. For dendritic arborization analysis, images were acquired with a 20× objective in z-stacks. For imaging of dendritic spines, during culture treatment described in materials and methods, cells were infected at Day 20 with human syn-GFP or mKate virus and stained for GFP or mKate. Cells were fixed as described at day 35 and stained with antibodies against GFP or mKate respectively. Images were acquired using the Nikon Confocal Alit with a 60× objective and a 2× digital zoom in z-stacks and using the Nikon spinning disk Microscope with a 100× objective in z-stacks. Neuronal and synaptic morphology was assessed using the Neurolucida software, pre- and post-synaptic marker analysis was performed using CellProfiler and total dendritic length was measured using Fiji software. Immunohistochemical examination was carried out on the induced neuronal cells.

SMILES: CC(NC(C)(C)C)C(=O)c1cccc(Cl)c1 (stereo not drawn) [Bupropion, 3-Chloro-N-tert-butyl-β-keto-α-methylphenethylamin]
- density of post-synaptic terminals (PSD95 puncta), responders vs non-responders (after treatment): increase in density
- intact synapses, responders vs non-responders (after treatment): increase
- size of PSD95 puncta (perimeter), responders vs non-responders (at baseline and after treatment): reduced
- levels of pre-synaptic terminals (Synapsin puncta), responders vs non-responders (both before and after treatment): significantly higher
- pre-synaptic terminals (Synapsin puncta density), following treatment (both responders and non-responders): increase
- Synapsin puncta perimeter size, effect of treatment (cells from non-responders): reduction in puncta perimeter size
- Synapsin puncta perimeter size, effect of treatment (cells from responders): increase in puncta perimeter size
- intact synapses (colocalization of pre- and post-synaptic terminals), treated vs untreated (neurons from non-responders): increased intact synapses
- density of post-synaptic terminals (distance between PSD95 puncta), after vs before treatment (neurons from responders, 7 days after treatment): significantly increased
- intact synapses (colocalization of pre- and post-synaptic terminals), treated vs untreated (neurons from responders): increased intact synapses
- size of PSD95 puncta (perimeter), effect of treatment (responders and non-responders): no significant effect
